From ChEMBL document CHEMBL2176988 (J Med Chem, 2012)

Experiments:
[1] = biological target: T1, Neuronal acetylcholine receptor; alpha4/beta2 (Homo sapiens, UniProt P17787+P43681); assay: Partial agonist activity at alpha4beta2 nAChR in human SH-EP1 cells assessed as calcium flux by calcium4-based FLIPR assay relative to nicotine; format: functional, cell-based
[2] = biological target: T2, Neuronal acetylcholine receptor; alpha3/beta4 (Homo sapiens, UniProt P30926+P32297); assay: Agonist activity at human alpha3beta4 nAChR expressed in CHO cells assessed as calcium flux by calcium4-based FLIPR assay; format: functional, cell-based
T2 sequence (P30926 whole entry): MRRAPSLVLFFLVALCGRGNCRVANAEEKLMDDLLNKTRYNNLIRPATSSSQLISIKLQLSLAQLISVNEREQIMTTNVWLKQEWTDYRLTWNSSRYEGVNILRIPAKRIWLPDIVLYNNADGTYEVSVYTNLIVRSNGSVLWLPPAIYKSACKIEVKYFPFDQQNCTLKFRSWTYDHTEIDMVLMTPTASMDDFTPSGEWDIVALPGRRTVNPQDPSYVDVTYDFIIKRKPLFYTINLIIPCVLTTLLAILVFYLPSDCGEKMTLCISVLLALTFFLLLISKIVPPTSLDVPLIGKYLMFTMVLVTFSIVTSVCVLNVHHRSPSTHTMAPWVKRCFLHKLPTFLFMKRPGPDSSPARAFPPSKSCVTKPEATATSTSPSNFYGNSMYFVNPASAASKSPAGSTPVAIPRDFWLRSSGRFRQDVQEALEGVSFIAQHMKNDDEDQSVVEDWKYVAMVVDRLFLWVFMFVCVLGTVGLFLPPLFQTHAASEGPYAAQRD
T2 sequence (P32297 whole entry): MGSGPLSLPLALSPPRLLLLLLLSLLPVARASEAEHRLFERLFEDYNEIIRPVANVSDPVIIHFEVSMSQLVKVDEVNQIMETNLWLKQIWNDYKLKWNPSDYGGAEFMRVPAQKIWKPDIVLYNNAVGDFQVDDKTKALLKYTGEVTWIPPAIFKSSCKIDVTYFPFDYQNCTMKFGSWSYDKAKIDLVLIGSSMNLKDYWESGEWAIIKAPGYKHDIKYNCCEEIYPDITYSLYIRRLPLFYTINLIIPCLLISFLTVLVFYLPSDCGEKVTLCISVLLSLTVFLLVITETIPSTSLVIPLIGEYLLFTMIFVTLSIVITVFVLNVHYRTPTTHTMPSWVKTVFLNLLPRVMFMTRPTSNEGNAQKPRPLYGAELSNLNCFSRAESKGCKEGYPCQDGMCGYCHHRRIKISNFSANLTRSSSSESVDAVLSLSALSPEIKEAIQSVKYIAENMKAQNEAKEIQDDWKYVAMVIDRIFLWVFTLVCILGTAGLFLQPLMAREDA

[3] = biological target: Neuronal acetylcholine receptor subunit alpha-7 (Homo sapiens, UniProt P36544); assay: Displacement of [3H]epibatidine from human alpha7 nAChR expressed in CHO cells after 2 hrs by liquid scintillation counting; format: cell-based
Chain of Neuronal acetylcholine receptor subunit alpha-7 (P36544 whole entry): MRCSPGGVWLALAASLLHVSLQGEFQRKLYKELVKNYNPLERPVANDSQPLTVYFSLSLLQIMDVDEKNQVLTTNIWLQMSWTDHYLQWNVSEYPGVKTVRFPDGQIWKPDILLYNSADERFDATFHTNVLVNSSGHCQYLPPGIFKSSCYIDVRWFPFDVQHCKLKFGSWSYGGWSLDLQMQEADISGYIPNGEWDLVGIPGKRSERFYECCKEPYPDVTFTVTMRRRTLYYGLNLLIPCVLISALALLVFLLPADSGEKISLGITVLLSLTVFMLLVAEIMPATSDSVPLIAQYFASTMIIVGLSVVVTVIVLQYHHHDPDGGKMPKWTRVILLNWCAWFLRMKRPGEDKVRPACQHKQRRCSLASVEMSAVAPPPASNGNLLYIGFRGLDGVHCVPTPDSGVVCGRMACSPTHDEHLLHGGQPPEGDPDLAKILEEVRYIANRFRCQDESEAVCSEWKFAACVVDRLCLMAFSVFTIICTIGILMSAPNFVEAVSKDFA

[4] = biological target: Neuronal acetylcholine receptor; alpha4/beta2 (Rattus norvegicus, UniProt P09483+P12390); assay: Displacement of [3H]epibatidine from alpha4beta2 nAChR in Sprague-Dawley rat cortex after 2 hrs by liquid scintillation counting
Chain of Neuronal acetylcholine receptor; alpha4/beta2 (Rattus norvegicus, UniProt P09483+P12390) (P09483 whole entry): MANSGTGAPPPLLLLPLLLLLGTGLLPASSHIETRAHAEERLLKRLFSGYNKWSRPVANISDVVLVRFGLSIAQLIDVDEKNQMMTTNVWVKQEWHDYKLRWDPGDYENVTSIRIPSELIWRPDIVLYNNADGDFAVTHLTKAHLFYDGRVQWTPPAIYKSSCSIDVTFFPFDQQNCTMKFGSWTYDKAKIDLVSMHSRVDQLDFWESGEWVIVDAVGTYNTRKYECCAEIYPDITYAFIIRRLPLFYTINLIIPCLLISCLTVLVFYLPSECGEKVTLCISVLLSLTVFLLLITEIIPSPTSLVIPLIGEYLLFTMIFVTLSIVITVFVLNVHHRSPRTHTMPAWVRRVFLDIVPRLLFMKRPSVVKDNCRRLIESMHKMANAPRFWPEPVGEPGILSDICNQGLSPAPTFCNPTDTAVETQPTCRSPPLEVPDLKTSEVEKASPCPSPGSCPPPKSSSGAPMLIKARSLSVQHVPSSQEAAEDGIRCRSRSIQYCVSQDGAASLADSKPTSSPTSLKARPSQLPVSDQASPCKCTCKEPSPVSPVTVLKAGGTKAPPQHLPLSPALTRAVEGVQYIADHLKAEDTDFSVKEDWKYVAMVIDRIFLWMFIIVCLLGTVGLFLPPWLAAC
Chain of Neuronal acetylcholine receptor; alpha4/beta2 (Rattus norvegicus, UniProt P09483+P12390) (P12390 whole entry): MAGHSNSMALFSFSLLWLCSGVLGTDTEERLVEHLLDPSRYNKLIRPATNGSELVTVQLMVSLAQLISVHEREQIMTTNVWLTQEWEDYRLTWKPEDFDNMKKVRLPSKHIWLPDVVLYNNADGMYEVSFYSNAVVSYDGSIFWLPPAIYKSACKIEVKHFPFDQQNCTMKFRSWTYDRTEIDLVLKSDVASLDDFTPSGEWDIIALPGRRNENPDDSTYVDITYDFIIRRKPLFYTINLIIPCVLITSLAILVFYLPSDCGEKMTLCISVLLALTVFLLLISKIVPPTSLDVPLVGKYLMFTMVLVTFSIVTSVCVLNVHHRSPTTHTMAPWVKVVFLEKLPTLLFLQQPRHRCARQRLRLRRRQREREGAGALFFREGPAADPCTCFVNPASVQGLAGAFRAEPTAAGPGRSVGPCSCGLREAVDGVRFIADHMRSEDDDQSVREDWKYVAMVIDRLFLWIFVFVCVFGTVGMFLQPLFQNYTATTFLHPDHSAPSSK

[5] = biological target: T1, Neuronal acetylcholine receptor; alpha4/beta2; assay: Displacement of [3H]nicotine from alpha4beta2 nAChR in human SH-EP1 cells after 2 hrs by liquid scintillation assay; format: cell-based
[6] = biological target: T2, Neuronal acetylcholine receptor; alpha3/beta4; assay: Agonist activity at human alpha3beta4 nAChR expressed in CHO cells assessed as calcium flux by calcium4-based FLIPR assay relative to nicotine; format: functional, cell-based
[7] = biological target: T1, Neuronal acetylcholine receptor; alpha4/beta2; assay: Partial agonist activity at alpha4beta2 nAChR in human SH-EP1 cells assessed as calcium flux by calcium4-based FLIPR assay; format: functional, cell-based
[8] = biological target: T2, Neuronal acetylcholine receptor; alpha3/beta4; assay: Displacement of [3H]epibatidine from human alpha3beta4 nAChR expressed in CHO cells after 2 hrs by liquid scintillation counting; format: cell-based
[9] = biological target: T1, Neuronal acetylcholine receptor; alpha4/beta2; assay: Agonist activity at alpha4beta2 nAChR in human SH-EP1 cells assessed as calcium flux by calcium4-based FLIPR assay; format: functional, cell-based
[10] = biological target: T1, Neuronal acetylcholine receptor; alpha4/beta2; assay: Agonist activity at alpha4beta2 nAChR in human SH-EP1 cells assessed as calcium flux by calcium4-based FLIPR assay relative to nicotine; format: functional, cell-based
[11] = biological target: T1, Neuronal acetylcholine receptor; alpha4/beta2; assay: Displacement of [3H]methylcarbamylcholine from alpha4beta2 nAChR; format: protein-complex assay

T1 sequence (P17787 whole entry): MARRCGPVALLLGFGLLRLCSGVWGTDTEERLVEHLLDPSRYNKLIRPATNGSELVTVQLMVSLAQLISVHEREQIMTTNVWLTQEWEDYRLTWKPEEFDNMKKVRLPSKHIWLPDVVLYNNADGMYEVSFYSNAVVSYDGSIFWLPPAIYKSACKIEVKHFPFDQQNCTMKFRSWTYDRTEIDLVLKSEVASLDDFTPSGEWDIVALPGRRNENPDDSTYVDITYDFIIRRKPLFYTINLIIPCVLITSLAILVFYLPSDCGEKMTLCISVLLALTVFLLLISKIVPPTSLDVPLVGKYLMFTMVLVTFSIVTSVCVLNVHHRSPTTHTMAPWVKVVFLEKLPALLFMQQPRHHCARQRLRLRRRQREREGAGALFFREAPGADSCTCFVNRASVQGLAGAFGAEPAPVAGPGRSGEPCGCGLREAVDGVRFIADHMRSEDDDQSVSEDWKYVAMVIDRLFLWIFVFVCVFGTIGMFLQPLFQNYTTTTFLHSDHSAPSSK
T1 sequence (P43681 whole entry): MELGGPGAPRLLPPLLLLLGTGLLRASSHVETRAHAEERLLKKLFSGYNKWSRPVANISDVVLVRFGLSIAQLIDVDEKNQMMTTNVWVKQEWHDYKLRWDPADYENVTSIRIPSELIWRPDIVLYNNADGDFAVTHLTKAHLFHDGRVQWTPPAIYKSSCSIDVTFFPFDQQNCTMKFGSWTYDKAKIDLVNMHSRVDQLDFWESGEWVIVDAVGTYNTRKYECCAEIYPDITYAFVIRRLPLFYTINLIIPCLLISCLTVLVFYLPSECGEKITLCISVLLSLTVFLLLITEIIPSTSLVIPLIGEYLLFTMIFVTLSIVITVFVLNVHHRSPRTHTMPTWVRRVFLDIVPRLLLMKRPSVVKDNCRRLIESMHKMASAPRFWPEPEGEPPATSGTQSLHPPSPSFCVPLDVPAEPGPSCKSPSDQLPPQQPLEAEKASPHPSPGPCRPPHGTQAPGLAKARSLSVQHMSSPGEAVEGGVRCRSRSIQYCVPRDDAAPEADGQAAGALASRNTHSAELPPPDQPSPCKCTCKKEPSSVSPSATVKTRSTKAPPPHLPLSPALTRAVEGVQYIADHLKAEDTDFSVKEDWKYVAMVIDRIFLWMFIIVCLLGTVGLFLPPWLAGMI

Row | SMILES | Emax [1] | EC50 [2] | Ki [3] | Ki [4] | Ki [5] | Emax [6] | EC50 [7] | Ki [8] | EC50 [9] | Emax [10] | Ki [11]
1 | O=C(c1occc1Cl)N1CC2CNCC(C2)C1 | 3% | 28 µM | > 10 µM | 0.12 µM | 0.015 µM | 26% | 76 µM | 8.7 µM |  |  | 
2 | O=C(c1ccc(F)o1)N1CC2CNCC(C2)C1 | 73% | 9.1 µM | 4.7 µM | 0.015 µM | 0.003 µM | 110% | 0.3 µM | 1.1 µM |  |  | 
3 | O=C(c1ccc(Br)o1)N1CC2CNCC(C2)C1 | 23% | 30 µM | > 10 µM | 0.1 µM | 0.026 µM | 28% | 8.3 µM | 6.5 µM |  |  | 
4 | N#Cc1ccoc1C(=O)N1CC2CNCC2C1 (stereo not drawn) |  | 22 µM | 8.8 µM | 0.068 µM | 0.013 µM | 96% |  | 3.2 µM | 100 µM | 76% | 
5 | O=C(c1ccncc1)N1CC2CNCC2C1 (stereo not drawn) |  | 32 µM | 15 µM | 0.02 µM | 0.067 µM | 33% |  | 5.4 µM | 21 µM | 56% | 
6 | Cc1ccoc1C(=O)N1CC2CNCC(C2)C1 | 9% | 25 µM | > 10 µM | 0.65 µM | 0.19 µM | 11% | 25 µM | > 10 µM |  |  | 
7 | N#Cc1coc(C(=O)N2CC3CNCC3C2)c1 (stereo not drawn) |  | 31 µM | 8.6 µM | 0.12 µM | 0.027 µM | 21% |  | 8.7 µM | 11 µM | 22% | 
8 | C(=C1/CN2CCC1CC2)/c1cccnc1 |  |  |  |  |  |  |  |  |  |  | 0.002 µM
9 | N#Cc1ccc(C(=O)N2CC3CNCC(C3)C2)o1 | 58% | 34 µM | > 10 µM | 0.078 µM | 0.008 µM | 64% | 7.1 µM | 21 µM |  |  | 
10 | O=C(C1CC1)N1CC2CNCC(C2)C1 |  | 1.2 µM | 0.02 µM | 0.002 µM | 0.001 µM | 160% |  | 0.11 µM | 0.85 µM | 46% | 
11 | Cc1ccc(C(=O)N2CC3CNCC(C3)C2)o1 | 19% | 37 µM | > 10 µM | 0.24 µM | 0.046 µM | 11% | 8.5 µM | > 10 µM |  |  | 
12 | O=C(c1occc1Cl)N1CC2CNCC2C1 (stereo not drawn) |  | 22 µM | 2.6 µM | 0.012 µM | 0.002 µM | 110% |  | 2.4 µM | 17 µM | 79% | 
13 | O=C(c1ccncc1)N1CC2CNCC(C2)C1 |  | 54 µM | > 10 µM | 0.057 µM | 0.037 µM | 6% |  | > 10 µM | 19 µM | 7% | 
14 | COc1ccc(C(=O)N2CC3CNCC(C3)C2)cc1 |  | 28 µM | 100 µM | 0.38 µM | 0.06 µM | 7% |  | 27 µM | 4.3 µM | 6% | 
15 | O=C(c1occc1F)N1CC2CNCC(C2)C1 | 15% | 32 µM | > 10 µM | 0.21 µM | 0.05 µM | 54% | 22 µM | > 10 µM |  |  | 
